Earlier results, collected in US20240124428A1, “HETEROCYCLIC INHIBITORS OF PCSK9” (CARDIO THERAPEUTICS PTY LTD, priority 2020, published 2024).
Marks after values point to notes of the source that are not given here.

How the values were obtained:
[1] = data from Evison et al. 2020; conditions not given; cited from earlier work
[2] = molecular target: T1, hERG channel (Homo sapiens, UniProt Q12809); details: data from Evison et al. 2020; cited from earlier work
T1 construct: expressed in transfected cells; host or cells: CHO

[3] = molecular target: T2, CYP2D6 (Homo sapiens, UniProt P10635); details: data from Evison et al. 2020; cited from earlier work
T2 construct: using human liver microsomes; from tissue; host or cells: human liver microsomes

[4] = tested on: HepG2 cells; details: data from Evison et al. 2020; read-out: HepG2 cytotoxicity IC50; cited from earlier work
[5] = molecular target: T3, CYP3A4 (Homo sapiens, UniProt P08684); details: data from Evison et al. 2020; cited from earlier work
T3 construct: using human liver microsomes; from tissue; host or cells: human liver microsomes

[6] = molecular target: T4, binding between PCSK9 and the LDL receptor (Homo sapiens, UniProt Q8NBP7); details: comparator; data from Evison et al. 2020; read-out: PCSK9-LDLR binding assay IC50; cited from earlier work
T4 construct: purchased CircuLex
T4 sequence (Q8NBP7 153-692): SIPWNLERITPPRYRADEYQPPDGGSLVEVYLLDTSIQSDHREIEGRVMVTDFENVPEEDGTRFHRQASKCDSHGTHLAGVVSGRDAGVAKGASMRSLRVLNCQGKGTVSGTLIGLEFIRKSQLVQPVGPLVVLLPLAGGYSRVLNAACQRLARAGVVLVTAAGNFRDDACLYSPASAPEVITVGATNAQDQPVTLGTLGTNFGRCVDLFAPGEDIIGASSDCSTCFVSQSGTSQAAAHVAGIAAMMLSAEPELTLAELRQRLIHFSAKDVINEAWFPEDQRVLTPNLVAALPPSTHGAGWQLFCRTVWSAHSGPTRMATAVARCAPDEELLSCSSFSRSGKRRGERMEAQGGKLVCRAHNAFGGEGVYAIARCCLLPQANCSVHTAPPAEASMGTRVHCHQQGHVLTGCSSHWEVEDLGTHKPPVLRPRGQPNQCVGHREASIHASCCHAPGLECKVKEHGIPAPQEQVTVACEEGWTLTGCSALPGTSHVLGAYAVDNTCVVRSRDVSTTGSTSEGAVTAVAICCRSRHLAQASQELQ
T4 sequence (Q8NBP7 31-152 partner limits assumed): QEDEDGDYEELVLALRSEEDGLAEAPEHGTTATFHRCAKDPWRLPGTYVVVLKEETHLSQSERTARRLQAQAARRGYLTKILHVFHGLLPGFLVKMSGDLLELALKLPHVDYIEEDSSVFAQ

T3 sequence (P08684 whole entry): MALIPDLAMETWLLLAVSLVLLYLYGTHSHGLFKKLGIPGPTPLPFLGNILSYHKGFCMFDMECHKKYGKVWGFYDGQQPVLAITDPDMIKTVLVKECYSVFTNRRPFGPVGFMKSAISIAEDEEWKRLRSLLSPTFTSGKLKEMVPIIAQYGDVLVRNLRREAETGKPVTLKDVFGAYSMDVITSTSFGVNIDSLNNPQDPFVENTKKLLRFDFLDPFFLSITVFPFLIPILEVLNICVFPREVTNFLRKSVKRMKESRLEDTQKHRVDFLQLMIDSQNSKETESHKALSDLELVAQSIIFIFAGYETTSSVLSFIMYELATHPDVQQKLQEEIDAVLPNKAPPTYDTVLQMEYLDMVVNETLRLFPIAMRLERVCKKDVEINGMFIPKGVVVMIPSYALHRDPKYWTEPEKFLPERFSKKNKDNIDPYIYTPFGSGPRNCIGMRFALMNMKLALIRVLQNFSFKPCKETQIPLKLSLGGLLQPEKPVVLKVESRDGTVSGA
T1 sequence (Q12809 whole entry): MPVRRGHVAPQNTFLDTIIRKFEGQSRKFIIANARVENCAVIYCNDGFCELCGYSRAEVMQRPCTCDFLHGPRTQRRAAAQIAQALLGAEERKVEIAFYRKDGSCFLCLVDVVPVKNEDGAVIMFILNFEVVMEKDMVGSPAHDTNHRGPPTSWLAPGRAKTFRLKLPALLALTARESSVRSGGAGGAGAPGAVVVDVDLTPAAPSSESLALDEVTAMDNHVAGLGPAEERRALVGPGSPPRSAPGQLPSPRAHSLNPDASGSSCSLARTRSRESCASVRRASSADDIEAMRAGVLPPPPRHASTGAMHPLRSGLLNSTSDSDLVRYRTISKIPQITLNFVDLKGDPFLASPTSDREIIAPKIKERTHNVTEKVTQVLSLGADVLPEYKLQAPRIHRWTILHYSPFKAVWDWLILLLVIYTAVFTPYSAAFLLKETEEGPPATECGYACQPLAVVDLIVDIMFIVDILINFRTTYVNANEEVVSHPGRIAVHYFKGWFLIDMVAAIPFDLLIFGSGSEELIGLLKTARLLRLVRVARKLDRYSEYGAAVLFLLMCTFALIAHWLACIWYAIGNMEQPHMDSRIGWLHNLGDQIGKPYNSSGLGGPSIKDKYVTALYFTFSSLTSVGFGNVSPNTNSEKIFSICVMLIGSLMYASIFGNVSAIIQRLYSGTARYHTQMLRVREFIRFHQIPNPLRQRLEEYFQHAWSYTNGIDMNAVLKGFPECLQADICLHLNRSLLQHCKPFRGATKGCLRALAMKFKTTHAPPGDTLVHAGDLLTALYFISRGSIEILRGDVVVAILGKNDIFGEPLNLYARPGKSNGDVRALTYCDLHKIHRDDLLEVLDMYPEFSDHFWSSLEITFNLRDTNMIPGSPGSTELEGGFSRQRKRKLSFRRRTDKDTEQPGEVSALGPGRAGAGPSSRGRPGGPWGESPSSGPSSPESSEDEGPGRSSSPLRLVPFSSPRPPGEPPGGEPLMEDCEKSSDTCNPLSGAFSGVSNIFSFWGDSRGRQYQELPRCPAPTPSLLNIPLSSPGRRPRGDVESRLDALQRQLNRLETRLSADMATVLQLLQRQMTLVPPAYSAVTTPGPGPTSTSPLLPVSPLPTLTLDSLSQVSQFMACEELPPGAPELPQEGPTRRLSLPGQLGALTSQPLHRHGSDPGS
T2 sequence (P10635 whole entry): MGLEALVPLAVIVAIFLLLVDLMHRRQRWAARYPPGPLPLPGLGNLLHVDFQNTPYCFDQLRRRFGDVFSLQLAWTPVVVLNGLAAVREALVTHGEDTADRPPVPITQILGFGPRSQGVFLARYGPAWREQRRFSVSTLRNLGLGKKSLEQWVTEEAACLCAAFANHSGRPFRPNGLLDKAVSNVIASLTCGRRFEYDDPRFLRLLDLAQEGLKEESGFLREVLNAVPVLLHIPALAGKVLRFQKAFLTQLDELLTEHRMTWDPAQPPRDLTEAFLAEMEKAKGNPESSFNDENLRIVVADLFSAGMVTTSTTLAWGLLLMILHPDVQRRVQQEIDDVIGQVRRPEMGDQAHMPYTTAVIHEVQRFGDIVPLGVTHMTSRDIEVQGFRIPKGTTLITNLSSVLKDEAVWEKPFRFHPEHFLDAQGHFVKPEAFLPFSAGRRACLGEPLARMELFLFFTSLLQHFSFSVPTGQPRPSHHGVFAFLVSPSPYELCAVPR

Cc1cn(-c2cc(CN3CCC[C@H](N)C3)cc(NC(=O)c3ccc(C)c(Oc4ccccc4)c3)c2)cn1 [3f]
AUClast (h*ng/ml) [1]: 92.3** h*ng/ml
Bioavailability (%) [1]: 0.5** %
CMax (ng/ml) [1]: 52.5** ng/ml
VSS (L/kg) [1]: 3.87** L/kg
IC50 [2]: 19 µM
CYP2D6 (% inhibition at 10 μM) [3]: 82.2%
IC50 [4]: 5.23 µM
CYP3A4 (% inhibition at 10 μM) [5]: 95.0%
IC50 [6]: 0.939 µM
